This note sets out measurements from US10675284B2, “Treatment of B-cell malignancies by a combination JAK and PI3K inhibitors” (Incyte Corporation, priority 2014, dated 2020).

The IC50 is the midpoint of a concentration-inhibition curve.

For assay [1], the system named is Pfeiffer cells. In words: Western blot analysis of Pfeiffer cells. Format: cell-based, human. The note with it: for STAT3 phosphorylation / pAKT: 4 hours, then IL-10 for 15 minutes. On the procedure: The following materials and methods were used in the Western blot analysis infra. Cells (5 million) were lysed in a 300 μl volume of lysis buffer. Soluble fractions were collected by centrifugation. 25 μl of cell lysate were loaded into Tris-Glycine polyacrylamide gels and subjected to electrophoresis. The proteins were transferred into nitrocellulose membrane and probed with antibodies from Cell Signaling Technology for the following proteins: phospho-Stat3 Y705, phospho-Akt 5473, pim1, pim2, pim3, c-myc, phospho-p70S6K, phosho-S6, phospho-Bad S112 and actin.
IL6 and IL10 promote cell survival through the expression of Pim2, which is dependent on JAK1 activity.
Extracts were analyzed by Western blot for pAKT and pSTAT3.
(A western blot detects proteins with antibodies after separation by electrophoresis.)

Assay [2] has as its target human JAK2 (a.a. 828-1132) (Homo sapiens (Human), UniProt O60674). In words: In vitro JAK kinase assay (HTRF), JAK2. The format is biochemical. Particulars: IC50 ratio, 1 mM ATP. (TR-FRET usually uses a lanthanide donor and a delayed reading to cut background.)
In assay [3] the target is human JAK1 (a.a. 837-1142) (Homo sapiens, UniProt P23458). Nature of the assay: In vitro JAK kinase assay (HTRF), JAK1. The format is biochemical. Particulars: 1 mM ATP; read-out: JAK1 IC50.
human JAK1 (a.a. 837-1142), sequence (P23458 whole entry, looked up): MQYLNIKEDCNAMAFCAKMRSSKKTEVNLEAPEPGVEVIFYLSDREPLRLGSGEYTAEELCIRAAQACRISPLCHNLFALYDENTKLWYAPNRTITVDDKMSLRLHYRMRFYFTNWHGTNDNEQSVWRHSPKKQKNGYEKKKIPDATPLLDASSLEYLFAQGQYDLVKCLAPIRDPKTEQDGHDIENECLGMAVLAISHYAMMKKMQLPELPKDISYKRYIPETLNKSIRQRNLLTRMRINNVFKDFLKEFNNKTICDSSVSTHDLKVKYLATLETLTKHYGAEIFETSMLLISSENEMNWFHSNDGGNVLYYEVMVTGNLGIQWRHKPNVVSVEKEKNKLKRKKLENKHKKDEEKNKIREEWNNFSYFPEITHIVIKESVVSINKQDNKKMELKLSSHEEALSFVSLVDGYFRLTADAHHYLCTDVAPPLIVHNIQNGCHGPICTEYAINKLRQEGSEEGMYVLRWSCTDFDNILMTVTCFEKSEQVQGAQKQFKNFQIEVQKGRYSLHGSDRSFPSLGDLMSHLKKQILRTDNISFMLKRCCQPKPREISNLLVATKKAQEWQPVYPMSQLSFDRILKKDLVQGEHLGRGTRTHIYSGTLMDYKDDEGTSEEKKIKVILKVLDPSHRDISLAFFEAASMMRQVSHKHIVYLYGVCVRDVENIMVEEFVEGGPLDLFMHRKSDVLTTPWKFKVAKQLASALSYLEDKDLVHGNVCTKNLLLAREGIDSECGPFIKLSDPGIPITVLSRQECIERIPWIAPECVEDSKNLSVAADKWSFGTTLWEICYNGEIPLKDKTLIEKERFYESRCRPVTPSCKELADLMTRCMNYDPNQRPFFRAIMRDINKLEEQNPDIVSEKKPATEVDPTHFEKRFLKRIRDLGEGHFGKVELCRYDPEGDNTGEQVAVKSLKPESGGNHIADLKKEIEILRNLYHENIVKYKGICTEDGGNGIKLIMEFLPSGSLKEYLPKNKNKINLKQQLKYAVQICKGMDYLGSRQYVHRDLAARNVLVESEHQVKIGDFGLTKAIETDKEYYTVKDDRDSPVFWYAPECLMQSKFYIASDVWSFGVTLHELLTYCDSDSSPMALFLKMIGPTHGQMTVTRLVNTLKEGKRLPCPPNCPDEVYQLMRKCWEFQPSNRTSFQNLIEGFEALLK
Assay [4] concerns Pfeiffer cells. Nature of the assay: Annexin-V staining of Pfeiffer cells (apoptosis). The format is cell-based, human. Particulars: 3 days, 10% FBS + IL10, Compound 16 at 1 μM.
Assay [5] has as its system Pfeiffer cells. Nature of the assay: Cell proliferation assay in Pfeiffer cells. Format: cell-based, human. The note with it: for IC50: Homo sapiens, Pfeiffer, 72 h, Pfeiffer cells, 3 days, read-out: IC50, cell growth.
Procedure: Diffuse large B cell lymphoma cells were seeded at 2000 cell/well in 96 well culture plates in the absence or presence of 10 ng/ml IL10. Compounds were added to these cells after dilution in DMSO first, followed by dilution in culture medium (4× concentration). The cells were cultured in an incubator for 3 days with 5% CO2. Cell proliferation was assessed using the Cell titer-glow assay (Promega, Madison, Wis.).
A further assay deals with PI3Kδ (p110δ/p85α) (Homo sapiens (Human), UniProt O00329). In words: PI3Kδ scintillation proximity assay. Format: biochemical. Particulars: 20 μM ATP.
PI3Kδ (p110δ/p85α), sequence (O00329 whole entry, the tested form may be a part): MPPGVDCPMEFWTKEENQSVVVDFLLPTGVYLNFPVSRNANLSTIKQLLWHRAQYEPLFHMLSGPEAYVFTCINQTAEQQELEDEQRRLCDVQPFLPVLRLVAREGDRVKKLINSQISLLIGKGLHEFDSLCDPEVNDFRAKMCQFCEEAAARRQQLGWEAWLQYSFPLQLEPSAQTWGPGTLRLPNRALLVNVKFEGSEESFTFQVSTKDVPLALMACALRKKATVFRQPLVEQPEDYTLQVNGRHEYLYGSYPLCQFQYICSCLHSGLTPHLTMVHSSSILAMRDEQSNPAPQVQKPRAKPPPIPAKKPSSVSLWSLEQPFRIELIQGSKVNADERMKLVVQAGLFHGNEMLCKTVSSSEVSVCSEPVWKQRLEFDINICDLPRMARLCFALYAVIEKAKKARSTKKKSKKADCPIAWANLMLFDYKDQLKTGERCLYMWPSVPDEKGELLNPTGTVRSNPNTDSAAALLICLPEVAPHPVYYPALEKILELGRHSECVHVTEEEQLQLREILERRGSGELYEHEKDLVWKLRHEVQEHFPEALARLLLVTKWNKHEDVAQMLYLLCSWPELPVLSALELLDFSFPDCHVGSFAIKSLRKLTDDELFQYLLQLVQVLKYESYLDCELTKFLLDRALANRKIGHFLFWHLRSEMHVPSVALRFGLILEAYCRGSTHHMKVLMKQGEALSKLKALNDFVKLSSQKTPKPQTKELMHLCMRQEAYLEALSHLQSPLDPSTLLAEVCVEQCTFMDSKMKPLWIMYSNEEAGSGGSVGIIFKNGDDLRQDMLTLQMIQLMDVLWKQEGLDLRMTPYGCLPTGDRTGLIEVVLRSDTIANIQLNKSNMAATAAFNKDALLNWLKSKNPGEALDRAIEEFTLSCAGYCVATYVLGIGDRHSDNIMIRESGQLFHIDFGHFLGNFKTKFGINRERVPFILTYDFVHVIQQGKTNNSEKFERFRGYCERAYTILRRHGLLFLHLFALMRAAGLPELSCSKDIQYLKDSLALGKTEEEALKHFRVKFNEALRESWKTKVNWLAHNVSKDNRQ
PI3Kδ (p110δ/p85α), sequence (P27986 whole entry partner, the tested form may be a part): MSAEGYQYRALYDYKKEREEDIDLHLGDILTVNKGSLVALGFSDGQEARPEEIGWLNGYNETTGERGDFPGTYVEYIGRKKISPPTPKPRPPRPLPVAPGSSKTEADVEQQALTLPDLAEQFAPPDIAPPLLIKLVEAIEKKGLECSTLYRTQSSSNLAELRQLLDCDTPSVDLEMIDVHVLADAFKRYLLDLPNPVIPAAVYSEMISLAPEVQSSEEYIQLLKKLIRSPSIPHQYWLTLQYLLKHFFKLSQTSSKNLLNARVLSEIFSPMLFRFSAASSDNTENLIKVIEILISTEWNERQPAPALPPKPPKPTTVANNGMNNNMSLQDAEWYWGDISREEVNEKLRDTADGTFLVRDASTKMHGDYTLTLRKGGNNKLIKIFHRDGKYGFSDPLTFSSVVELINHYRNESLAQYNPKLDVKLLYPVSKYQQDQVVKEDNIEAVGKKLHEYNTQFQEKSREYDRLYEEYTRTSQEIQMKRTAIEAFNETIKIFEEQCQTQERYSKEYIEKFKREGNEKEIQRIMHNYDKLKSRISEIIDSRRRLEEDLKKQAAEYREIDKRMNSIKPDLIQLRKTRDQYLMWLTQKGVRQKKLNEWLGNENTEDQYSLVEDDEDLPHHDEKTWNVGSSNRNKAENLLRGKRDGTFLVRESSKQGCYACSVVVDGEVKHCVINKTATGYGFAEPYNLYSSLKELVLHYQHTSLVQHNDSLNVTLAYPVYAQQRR
In assay [6] the test system is Pfeiffer human tumor xenograft. In words: Pfeiffer model of lymphoma (human tumor xenograft in SCID mice). The format is in vivo, mouse. As to the method: Female SCID mice, (5 to 8 weeks of age, Charles River Laboratories, Wilmington, Mass.) were inoculated with 1×10^7 tumor cells (Pfeiffer, ATCC #CRL-2632, Manassas, Va.) and matrigel (BD Biosciences #354234) in 0.2 mL sterile saline. The inoculation was performed subcutaneously on the flank. Tumor tissue fragments (approximately 3 mm×3 mm) were collected 3 to 6 weeks after the inoculation of cultured cells and implanted subcutaneously in lieu of cellular inoculation. Tissue fragments were implanted as solid pieces using blunt-tip forceps. The treatment of tumor bearing mice was started 15 to 25 days after tumor inoculation, depending upon the tumor size. Animals were sorted to obtain roughly equivalent mean tumor volumes in each group. Minimum mean tumor volume in all groups was 150 mm3 on the first day of treatment and groups consisted of 7 animals. Experimental therapeutic agent, Example 347, was administered to mice orally (PO). Treatment frequency was 2 times daily for a minimum of 14 days for efficacy. The size of subcutaneous tumors was measured 2 to 3 times weekly using a digital caliper. The tumor volume was calculated by measuring the tumor in 2 dimensions and utilizing the equation: Volume=[Length×(Width2)]/2; where the larger number was length, and the smaller number width. If multiple tumors were formed, the final volume was the sum of the individual tumors subject to the same equation: eg, 2 tumors; Volume={[L1×(W1)2]/2}+{[L2×(W2)2]/2}. Effects on tumor growth were reported as percent tumor growth inhibition (% TGI). Percent TGI was calculated with the equation: (1−(Tx vol./control vol.))*100, where control volume was the vehicle or untreated tumor volume on a given day, and Tx volume was any treatment group tumor volume on that same day. Statistical differences between treatment and vehicle controls were assessed using ANOVA: Single Factor test.
Compound 32c (Table 2 supra) was evaluated as a single agent in the Pfeiffer human tumor xenograft model of diffuse large B-cell lymphoma, a subtype of NHL. […] Therefore, a tumor model was established based on subcutaneous inoculation of tumor cells into immune compromised SCID mice and tumor-bearing mice received twice daily oral doses of vehicle or Compound 32c at 0.3, 1, 3, or 10 mg/kg for 14 days.
On the technique in general: In xenograft studies the graft and the host belong to different species.

Where [7] appears, read: 10% FBS + IL10, ATP readout, Compound 16 at 1 μM in combination.

Structures are written as SMILES. Where two headings read alike, the source gives them in different places. Bounds are passed on as bounds.

human JAK2 (a.a. 828-1132), sequence (O60674 828-1132): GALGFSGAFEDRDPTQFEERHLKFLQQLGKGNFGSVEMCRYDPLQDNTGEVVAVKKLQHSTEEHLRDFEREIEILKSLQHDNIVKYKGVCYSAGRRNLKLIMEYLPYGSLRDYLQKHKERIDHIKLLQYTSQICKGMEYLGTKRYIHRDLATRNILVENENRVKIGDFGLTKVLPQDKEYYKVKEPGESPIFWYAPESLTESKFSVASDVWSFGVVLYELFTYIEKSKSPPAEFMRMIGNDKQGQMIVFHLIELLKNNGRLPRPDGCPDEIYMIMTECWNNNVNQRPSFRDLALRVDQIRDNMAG
Procedure for PI3Kδ (p110δ/p85α): [γ-^33P]ATP (10 mCi/mL) was purchased from Perking Elmer (Waltham, Mass.). […] PI3Kδ (p110δ/p85α) was purchased from Millipore (Bedford, Mass.). ATP, MgCl2, DTT, EDTA, MOPS and CHAPS were purchased from Sigma-Aldrich (St. Louis, Mo.). Wheat Germ Agglutinin (WGA) YSi SPA Scintillation Beads was purchased from GE healthcare life sciences (Piscataway, N.J.). The kinase reaction was conducted in polystyrene 384-well matrix white plate from Thermo Fisher Scientific in a final volume of 25 μL. Inhibitors were first diluted serially in DMSO and added to the plate wells before the addition of other reaction components. The final concentration of DMSO in the assay was 0.5%. […] Reactions were initiated by the addition of ATP, the final reaction mixture consisted of 20 μM PIP2, 20 μM ATP, 0.2 μCi [γ-^33P] ATP, 4 nM PI3Kδ. Reactions were incubated for 210 min and terminated by the addition of 40 μL SPA beads suspended in quench buffer: 150 mM potassium phosphate pH 8.0, 20% glycerol. 25 mM EDTA, 400 μM ATP. The final concentration of SPA beads was 1.0 mg/mL. After the plate sealing, plates were shaken overnight at room temperature and centrifuged at 1800 rpm for 10 minutes, the radioactivity of the product was determined by scintillation counting on Topcount (Perking Elmer).

With `N#CCC1(n2cc(-c3ncnc4[nH]ccc34)cn2)CN(C2CCN(C(=O)c3ccnc(C(F)(F)F)c3F)CC2)C1` [Compound 7, {1-{1-[3-Fluoro-2-(trifluoromethyl)isonicotinoyl]piperidin-4-yl}-3-[4-(7H-pyrrolo[2,3-d]pyrimidin-4-yl)-1H-pyrazol-1-yl]azetidin-3-yl}acetonitrile], the “IL10-induced expression of Pim2” value in the assay on Pfeiffer cells [1] (24 hours) is “blocked”. For the same compound, in assay [2], the JAK2/JAK1 is reported as more than 10. In assay [3], the IC50 was less than 10 nM.

`C[C@H](NC(=O)c1cc(F)c(N2CC(CC#N)(n3cc(-c4ncnc5[nH]ccc45)cn3)C2)cc1F)C(F)(F)F` [Compound 16, 4-{3-(cyanomethyl)-3-[4-(7H-pyrrolo[2,3-d]pyrimidin-4-yl)-1H-pyrazol-1-yl]azetidin-1-yl}-2,5-difluoro-N-[(1S)-2,2,2-trifluoro-1-methylethyl]benzamide]: in the assay with Pfeiffer cells [1], the STAT3 phosphorylation entry is recorded as “inhibition” and the pAKT entry was “no effect”. In addition, the “apoptosis (Annexin-V staining)” value with Pfeiffer cells [4] is reported as “neither agent alone had a significant effect”. The IC50 in the assay on Pfeiffer cells [5] (setting [7]) is more than 1000 nM. Besides, the JAK2/JAK1 in assay [2] is more than 10. For the same compound, the IC50 in assay [3] is less than 10 nM.

Take `Cc1csc2nc([C@H](C)Nc3ncnc4[nH]cnc34)c(-c3cccc(F)c3)c(=O)n12` [Compound 28, (S)-7-(1-(9H-purin-6-ylamino)ethyl)-6-(3-fluorophenyl)-3-methyl-5H-thiazolo[3,2-a]pyrimidin-5-one]: in the assay with Pfeiffer cells [1], the STAT3 phosphorylation entry is on record as “did not”. In addition, the pAKT entry in the assay with Pfeiffer cells [1] is “complete inhibition”. For the same compound, in the assay with Pfeiffer cells [4], the “apoptosis (Annexin-V staining)” value is recorded as “neither agent alone had a significant effect”. Further, the half-inhibitory concentration (IC50) in the assay on Pfeiffer cells [5] (setting [7]) turned out to be 6360 nM; with Pfeiffer cells [5] (-IL-10, ATP readout), 670 nM.

Compound `COc1c(C(C)n2nc(C)c3c(N)ncnc32)cc(Cl)c(C#N)c1C1CN(C[C@H](C)O)C1` (stereo partly drawn) [Compound 29, 4-[1-(4-amino-3-methyl-1H-pyrazolo[3,4-d]pyrimidin-1-yl)ethyl]-6-chloro-2-{1-[(2S)-2-hydroxypropyl]azetidin-3-yl}-3-methoxybenzonitrile] yielded an IC50 against PI3Kδ (p110δ/p85α) of less than 50 nM.

Turning to `COc1c(C(C)n2nc(C)c3c(N)ncnc32)cc(Cl)c(C#N)c1C1CN(CCO)C1` (stereo not shown) [Compound 30, 4-[1-(4-amino-3-methyl-1H-pyrazolo[3,4-d]pyrimidin-1-yl)ethyl]-6-chloro-2-[1-(2-hydroxyethyl)azetidin-3-yl]-3-methoxybenzonitrile], the IC50 on PI3Kδ (p110δ/p85α) was less than 50 nM.

Consider `CCOc1c(C(C)n2nc(C)c3c(N)ncnc32)cc(C)c(C#N)c1-c1ccc(C(=O)N(C)C)nc1` (stereo not shown) [Compound 31, 5-{3-[1-(4-amino-3-methyl-1H-pyrazolo[3,4-d]pyrimidin-1-yl)ethyl]-6-cyano-2-ethoxy-5-methylphenyl}-N,N-dimethylpyridine-2-carboxamide], for which the concentration for half-maximal inhibition (IC50) on PI3Kδ (p110δ/p85α) was less than 50 nM.

For `CCOc1c(C(C)n2nc(C)c3c(N)ncnc32)cc(Cl)c(F)c1C1CNC(=O)C1` (stereo not shown) [Compound 32c, 4-{3-[1-(4-amino-3-methyl-1H-pyrazolo[3,4-d]pyrimidin-1-yl)ethyl]-5-chloro-2-ethoxy-6-fluorophenyl}pyrrolidin-2-one], the “anti-proliferative effects on Pfeiffer cancer cells” value with Pfeiffer cells [5] (in vitro) is recorded as “sensitive”. In addition, the “percent tumor growth inhibition” value in assay [6] (0.3 mg/kg oral twice daily for 14 days) turned out to be 22%; in assay [6] (1 mg/kg oral twice daily for 14 days), 24%; in assay [6] (3 mg/kg oral twice daily for 14 days), 36%; in assay [6] (10 mg/kg oral twice daily for 14 days), 58%.
